We go through 14 compounds from paper PMC7967160, “Synthesis and Antiviral Evaluation of (1,4-Disubstituted-1,2,3-Triazol)-(E)-2-Methyl-but-2-Enyl Nucleoside Phosphonate Prodrugs” (Molecules, 2021).

Series [1] relates to HIV-1 LAI. The series is described as follows: HIV assay in human PBM cells infected with HIV-1 LAI, RT quantification. Type of series: cell-based. Conditions: for inhibition at 10 µM: Human immunodeficiency virus 1, PBMC, PBM cells, HIV-1 LAI. Here is the method: The assay was performed as described by Schinazi et al. with minor modifications. […] The supernatants were harvested, and the HIV-1 RT was quantified.

Series [2] can be described thus: in vitro. Type of series: cell-based. As to conditions: human; PBM cells; read-out: MTS Cytotoxicity (IC50, μM) PBM. Here is the method: (§1) Assays were performed in human peripheral blood mononuclear (PBM) and human liver (HepG2) cells via MTS assay using the CellTiter 96® Non-Radioactive Cell Proliferation (Promega) kit as previously described^3. Cytotoxicity was expressed as the concentration of test compounds that inhibited cell proliferation by 50% (IC50) and calculated using the Chou and Talalay method.

Series [3] concerns HBV. The series is described as follows: HBV assay in HepAD38 cells, real-time PCR for HBV DNA in supernatant. Type of series: cell-based. Conditions: Hepatitis B virus, 168 h, 7 days. The protocol:
In HepAD38 cells were seeded at 50,000 cells/well in collagen-coated 96-well plates. Test compounds or 2′,3′-didéoxy-3′-thiacytidin (3TC) (control) were added to HepAD38 cells to a final concentration of 10 μM.
Real-Time PCR for HBV DNA. The experiment lasted 7 days. On day 7, total DNA was purified from the supernatant using a commercially available kit (DNeasy 96 Blood & Tissue kit, Qiagen). The HBV DNA was amplified in a real-time PCR assay using a LightCycler 480 (Roche) as described elsewhere. All samples were tested in duplicate in two to three independent experiments. Analysis: The concentration of compound that inhibited HBV DNA replication by 50% (EC50) was determined by linear regression.

Series [4] relates to HBV. The series can be described thus: HBV assay in Huh7 cells transfected with pCI_HBVpg1820, intracapsid viral DNA by real-time PCR. Type of series: cell-based, hepatitis B virus (HBV). As to conditions: for inhibition at 10 µM: Hepatitis B virus, Huh-7, 96 h. Here is the method:
In Huh7 cells: antiviral activity against HBV in cell culture was measured as previously described. Briefly, Huh7 cells were transfected with plasmid pCI_HBVpg1820 containing 1.1 unit of HBV genome under the control of a human cytomegalovirus (CMV) promoter. The drugs were stored at 1000× in DMSO at −20 °C. For each experiment, the drugs were diluted in DMEM cell culture medium (Thermo Fisher Scientific, Artenay, France) to a final concentration of 10 μM. All drugs were tested in triplicate in two independent experiments. After 4 days of culture, intracapsid viral DNA was quantified by duplex real-time PCR, using primers described elsewhere, on a LightCycler 480 II apparatus (Roche Diagnostics France, Meylan, France) using TaqMan Universal PCR Mastermix II without UNG (Thermo Fisher Scientific, Artenay, France). Cells were quantified using primers by real-time PCR, using primers HPRT1_F (5′-[…]) and HPRT1_R (5′-[…]), on a LightCycler 480 II apparatus (Roche) using a LightCycler® 480 SYBR Green I Master (Roche Diagnostics France, Meylan, France). Cycling reactions were performed with the following parameters: 5 min at 95 °C, followed by 45 cycles of 10 s at 95 °C, 15 s at 60 °C, 10 s at 72 °C. The inhibition of HBV replication (%) and cell culture viability (%) were quantified using the following formulas. Inhibition of HBV replication (%)=1− HBV DNA copy numberDrug/HBV DNA copy numberCell culture medium Cell viability (%)= HPRT1 DNA copy numberDrug/HPRT1 DNA copy numberCell culture medium

The nature of series [5]: Cytotoxicity MTS assay in HepG2 cells. Conditions: human. Type of series: cell-based. Here is the method:
as §1

A short description of series [6]: Cell culture viability in the Huh7 HBV assay (HPRT1 DNA copy number). Conditions: human.
Series [7] deals with SARS-CoV-2 strain BavPat1. The series can be described thus: SARS-CoV-2 assay in Vero E6 cells (CellTiter-Blue). As to conditions: 10 μM.
Setting [8] is: 10 μM, Huh7 cells, 4 days, read-out: HBV % Inhibition Huh7.
Where [9] appears, read: read-out: HBV % Inhibition Huh7, 10 μM, Huh7 cells, 4 days.

`CCCCCCCCCCCCCCCCOCCCOP(=O)(C/C=C(\C)Cn1cc(-c2ccc(CCCCC)cc2)nn1)OCOC(=O)OC(C)C` (centres unmarked) [Compound 15c, [3-Hexadecyloxypropoxy-[(E)-3-methyl-4-[4-(4-pentylphenyl)triazol-1-yl]but-2-enyl]phosphoryl]oxymethyl isopropyl carbonate]: the inhibition at 10 µM was 28.2% in series [1], 28.8% in series [3] and 14% in series [4] (setting [8]). For the same compound, the IC50 in series [2] is 50.5 µM; in series [5], over 100 µM. Also, the viability at 4 days, 10 µM in series [6] amounted to 47%. In series [7], the “SARS-CoV-2 % Inhibition Vero E6” value is listed as under 1%.

As for `CCC(CC)COC(=O)[C@H](C)N[P@](=O)(OC[C@H]1O[C@@](C#N)(c2ccc3c(N)ncnn23)[C@H](O)[C@@H]1O)Oc1ccccc1` [Remdesivir, reference compound], the “SARS-CoV-2 % Inhibition Vero E6” value in series [7] was 100%.

As for `C/C(=C\CP(=O)(OCOC(=O)OC(C)C)OCOC(=O)OC(C)C)Cn1cc(CO)nn1` [Compound 11h, [[(E)-4-[4-(Hydroxymethyl)triazol-1-yl]-3-methyl-but-2-enyl]-(isopropoxycarbonyloxymethoxy)phosphoryl]oxymethyl isopropyl carbonate], the inhibition at 10 µM in series [1] is under 1%; in series [3], 15.1%; in series [4] (setting [8]) it was 28%. Further, the IC50 in series [2] was 76.4 µM; in series [5], over 100 µM. Besides, in series [6], the viability at 4 days, 10 µM is 100%. For the same compound, the “SARS-CoV-2 % Inhibition Vero E6” value in series [7] was 12%.

`CCCCCCCCCCCCCCCCOCCCOP(=O)(C/C=C(\C)Cn1cc(-c2ccc(CCC)cc2)nn1)OCOC(=O)OC(C)C` (centres unmarked) [Compound 15a, [3-Hexadecyloxypropoxy-[(E)-3-methyl-4-[4-(4-propylphenyl]triazol-1-yl]but-2-enyl]phosphoryl]oxymethyl isopropyl carbonate]: the inhibition at 10 µM in series [4] (setting [8]) is under 1%. In addition, in series [6], the viability at 4 days, 10 µM stood at 95%. For the same compound, the “SARS-CoV-2 % Inhibition Vero E6” value in series [7] is under 1%.

In the case of `COC(=O)c1cn(C/C(C)=C/CP(=O)(OCOC(=O)OC(C)C)OCOC(=O)OC(C)C)nn1` [Compound 11n, Methyl-1-[(E)-4-[bis(isopropoxycarbonyloxymethoxy)phosphoryl]-2-methyl-but-2-enyl]triazole-4-carboxylate], the values for the inhibition at 10 µM in series [1], in series [3] and in series [4] (setting [8]) were under 1%, 3.9% and 28%, respectively. The IC50 was 40.9 µM in series [2] and over 100 µM in series [5]. Further, in series [6], the viability at 4 days, 10 µM came out at 60%. The “SARS-CoV-2 % Inhibition Vero E6” value in series [7] is recorded as under 1%.

Regarding `CCCc1ccc(-c2cn(C/C(C)=C/CP(=O)(OCOC(=O)OC(C)C)OCOC(=O)OC(C)C)nn2)cc1` [Compound 11a, [[(E)-4-[4-(4-Propylphenyl)triazol-1-yl]-3-methyl-but-2-enyl]-(isopropoxycarbonyloxymethoxy)phosphoryl]oxymethyl isopropyl carbonate], the values for the inhibition at 10 µM in series [1], in series [3] and in series [4] (setting [9]) were under 1%, 19.6% and over 40%, respectively. The IC50 was found to be 50.2 µM in series [2] and 18.3 µM in series [5]. Further, the “HBV % Inhibition Huh7” value in series [4] (10 μM, Huh7 cells, 4 days) was 51%. In series [6], this compound gave a viability at 4 days, 10 µM of 96%. Also, the “SARS-CoV-2 % Inhibition Vero E6” value in series [7] is given as under 1%.

Consider `CCNC(=O)c1cn(C/C(C)=C/CP(=O)(OCOC(=O)OC(C)C)OCOC(=O)OC(C)C)nn1` [Compound 11q, [[(E)-4-[4-(Ethylcarbamoyl)triazol-1-yl]-3-methyl-but-2-enyl]-(isopropoxycarbonyloxymethoxy)phosphoryl]oxymethyl isopropyl carbonate], for which the values for the inhibition at 10 µM in series [1], in series [3] and in series [4] (setting [8]) were 31.2%, under 1% and under 1%, respectively. Also, the IC50 in series [2] is 80.6 µM; in series [5], over 100 µM. Further, in series [6], the viability at 4 days, 10 µM was found to be 90%. In addition, the “SARS-CoV-2 % Inhibition Vero E6” value in series [7] is under 1%.

Regarding `C/C(=C\CP(=O)(OCOC(=O)OC(C)C)OCOC(=O)OC(C)C)Cn1cc(C2CC2)nn1` [Compound 11f, [[(E)-4-(4-Cyclopropyltriazol-1-yl)-3-methyl-but-2-enyl]-(isopropoxycarbonyloxymethoxy)phosphoryl]oxymethyl isopropyl carbonate], the inhibition at 10 µM in series [1] was 30.7%; in series [3], 36.3%; in series [4] (setting [8]) it was under 1%. Further, the figures for the IC50 in series [2] and in series [5] were 25.5 µM and over 100 µM, respectively. The viability at 4 days, 10 µM in series [6] was determined as 100%. Moreover, the “SARS-CoV-2 % Inhibition Vero E6” value in series [7] was under 1%.

`C/C(=C\CP(=O)(OCOC(=O)OC(C)C)OCOC(=O)OC(C)C)Cn1cc(-c2ccc([N+](=O)[O-])cc2)nn1` [Compound 11l, [[(E)-4-(4-Nitrophenyltriazol-1-yl)-3-methyl-but-2-enyl]-(isopropoxycarbonyloxymethoxy)phosphoryl]oxymethyl isopropyl carbonate]: the inhibition at 10 µM in series [1] was 38.8%; in series [3], 42.6%; in series [4] (setting [9]), over 40%. The IC50 came to 23.5 µM in series [2] and 85.3 µM in series [5]. Moreover, the “HBV % Inhibition Huh7” value in series [4] (10 μM, Huh7 cells, 4 days) is given as 40%. For the same compound, the “anti-HBV activity in words” value in series [4] (compared to entecavir (Huh7) and lamivudine (HepAd38)) is “good activity”. This compound showed a viability at 4 days, 10 µM in series [6] of 100%. In addition, the “SARS-CoV-2 % Inhibition Vero E6” value in series [7] is 10%.

As for `C[C@@H]1C[C@@H]([C@H](O)CC2CC(=O)NC(=O)C2)C(=O)[C@@H](C)C1` [cycloheximide, reference compound], the values for the IC50 in series [2] and in series [5] were 1 µM and 1.5 µM, respectively.

On to `Cc1cn([C@H]2C[C@H](N=[N+]=[N-])[C@@H](CO)O2)c(=O)[nH]c1=O` [AZT, reference compound], for which the concentration giving a half-maximal response (EC50) in series [1] (positive control, data not shown, read-out: EC50 anti-HIV) amounted to 0.008 µM.

Take `CCCCCCCCCCCCCCCCOCCCOP(=O)(C/C=C(\C)Cn1cc(-c2ccc(CCCCCCC)cc2)nn1)OCOC(=O)OC(C)C` (centres unmarked) [Compound 15e, [3-Hexadecyloxypropoxy-[(E)-3-methyl-4-[4-(heptylphenyl)triazol-1-yl]but-2-enyl]phosphoryl]oxymethyl isopropyl carbonate]: the inhibition at 10 µM in series [4] (setting [8]) is 8%. Moreover, the viability at 4 days, 10 µM in series [6] was found to be 100%. Also, in series [7], the “SARS-CoV-2 % Inhibition Vero E6” value is listed as under 1%.

For `CCCCCCCCCCCCCCCCOCCCOP(=O)(C/C=C(\C)Cn1cc(-c2ccc([N+](=O)[O-])cc2)nn1)OCOC(=O)OC(C)C` (centres unmarked) [Compound 15l, [3-Hexadecyloxypropoxy-[(E)-3-methyl-4-[4-(nitrophenyl)triazol-1-yl]but-2-enyl]phosphoryl]oxymethyl isopropyl carbonate], the inhibition at 10 µM in series [4] (setting [8]) was 12%. In addition, the viability at 4 days, 10 µM in series [6] stood at 100%. Moreover, the “SARS-CoV-2 % Inhibition Vero E6” value in series [7] is under 1%.

Regarding `C/C(=C\CP(=O)(OCOC(=O)OC(C)C)OCOC(=O)OC(C)C)Cn1cc(C(=O)O)nn1` [Compound 11m, 1-[(E)-4-[Bis(isopropoxycarbonyloxymethoxy)phosphoryl]-2-methyl-but-2-enyl]triazole-4-carboxylic acid], the inhibition at 10 µM in series [1] is 12.9%; in series [3] it was 41.3%; in series [4] (setting [8]), 12%. For the same compound, in series [5], the IC50 was over 100 µM. The compound also showed a viability at 4 days, 10 µM in series [6] of 57%. The “SARS-CoV-2 % Inhibition Vero E6” value in series [7] is under 1%.
